IC50 and melting point data for 1 molecule are collected here from paper PMC8400806, “Discovery of Amide-Functionalized Benzimidazolium Salts as Potent α-Glucosidase Inhibitors” (Molecules, 2021).

The structures appear in SMILES notation.

In general, IC50 refers to the concentration that inhibits the measured activity by half. Low values mean greater potency in that assay, high ones weaker potency in that assay. What is called melting point is the temperature of the solid-liquid transition.

The target in series [1] is T1, α-glucosidase enzyme (Saccharomyces cerevisiae, UniProt P53341).
T1 construct: purchased Sigma-Aldrich, Munich, Germany
The series can be described thus: biochemical. The series is classed as biochemical. Here is the method: The solution of the α-glucosidase enzyme (obtained from Saccharomyces cerevisiae (Sigma-Aldrich, Munich, Germany)) was prepared in phosphate buffer (pH 6.8, 100 mM). The synthesized compounds were dissolved in dimethyl sulfoxide (DMSO). […] Afterwards, 40 μL of 5 mM p-nitrophenyl-α-D-glucopyranoside (Sigma-Aldrich, Munich, Germany) was poured into each well and further incubated for an additional half-hour. […] Acarbose (Sigma-Aldrich, Munich, Germany) and DMSO were used as reference inhibitors and negative control, respectively. The tests were conducted in triplicate and percent inhibitions were calculated using the following formula: % Inhibition = [(A control − A sample)/A control] × 100 where ‘A’ stands for absorbance.
The IC50 values of the synthesized compounds and acarbose were also determined.

T1 sequence (P53341 whole entry): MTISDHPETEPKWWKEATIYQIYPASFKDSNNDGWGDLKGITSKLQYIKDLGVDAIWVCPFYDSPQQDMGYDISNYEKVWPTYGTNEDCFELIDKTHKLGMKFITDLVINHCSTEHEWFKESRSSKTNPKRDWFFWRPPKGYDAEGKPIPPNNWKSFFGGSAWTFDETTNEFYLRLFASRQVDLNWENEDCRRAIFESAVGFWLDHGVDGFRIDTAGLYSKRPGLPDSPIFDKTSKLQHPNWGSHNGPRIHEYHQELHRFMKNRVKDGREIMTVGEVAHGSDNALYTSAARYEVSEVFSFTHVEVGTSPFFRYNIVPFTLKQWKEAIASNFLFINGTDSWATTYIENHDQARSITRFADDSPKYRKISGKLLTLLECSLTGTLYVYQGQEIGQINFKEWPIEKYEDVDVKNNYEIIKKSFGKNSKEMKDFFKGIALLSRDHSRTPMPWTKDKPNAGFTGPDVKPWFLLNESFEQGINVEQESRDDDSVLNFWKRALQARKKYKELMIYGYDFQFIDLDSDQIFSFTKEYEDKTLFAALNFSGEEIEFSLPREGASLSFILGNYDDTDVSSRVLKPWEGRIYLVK

Consider `COc1ccccc1NC(=O)C[n+]1cn(Cc2ccccc2)c2ccccc21.[Br-]` [Compound 9l, 1-Benzyl-3-[2-{(2-methoxyphenyl)amino}-2-oxoethyl]-1H-benzo[d]imidazol-3-ium bromide], for which the melting point lay within 188 to 189 °C. In addition, it took 74.94 ± 0.028 µM to reach half-maximal inhibition in series [1] (IC50).
